In ChEMBL document CHEMBL3779836, “Inhibition of Histone Demethylases Offers a Novel and Promising Approach for the Treatment of Cancer and Other Diseases” (ACS Med Chem Lett, 2016):
pIC50: −log10 of the molar value.

Tests used:
[1] = molecular target: T1, Lysine-specific demethylase 4C (Homo sapiens, UniProt Q9H3R0); assay: Inhibition of human KDM4C preincubated for 10 mins followed by substrate addition by AlphaLISA assay
T1 sequence (Q9H3R0 whole entry): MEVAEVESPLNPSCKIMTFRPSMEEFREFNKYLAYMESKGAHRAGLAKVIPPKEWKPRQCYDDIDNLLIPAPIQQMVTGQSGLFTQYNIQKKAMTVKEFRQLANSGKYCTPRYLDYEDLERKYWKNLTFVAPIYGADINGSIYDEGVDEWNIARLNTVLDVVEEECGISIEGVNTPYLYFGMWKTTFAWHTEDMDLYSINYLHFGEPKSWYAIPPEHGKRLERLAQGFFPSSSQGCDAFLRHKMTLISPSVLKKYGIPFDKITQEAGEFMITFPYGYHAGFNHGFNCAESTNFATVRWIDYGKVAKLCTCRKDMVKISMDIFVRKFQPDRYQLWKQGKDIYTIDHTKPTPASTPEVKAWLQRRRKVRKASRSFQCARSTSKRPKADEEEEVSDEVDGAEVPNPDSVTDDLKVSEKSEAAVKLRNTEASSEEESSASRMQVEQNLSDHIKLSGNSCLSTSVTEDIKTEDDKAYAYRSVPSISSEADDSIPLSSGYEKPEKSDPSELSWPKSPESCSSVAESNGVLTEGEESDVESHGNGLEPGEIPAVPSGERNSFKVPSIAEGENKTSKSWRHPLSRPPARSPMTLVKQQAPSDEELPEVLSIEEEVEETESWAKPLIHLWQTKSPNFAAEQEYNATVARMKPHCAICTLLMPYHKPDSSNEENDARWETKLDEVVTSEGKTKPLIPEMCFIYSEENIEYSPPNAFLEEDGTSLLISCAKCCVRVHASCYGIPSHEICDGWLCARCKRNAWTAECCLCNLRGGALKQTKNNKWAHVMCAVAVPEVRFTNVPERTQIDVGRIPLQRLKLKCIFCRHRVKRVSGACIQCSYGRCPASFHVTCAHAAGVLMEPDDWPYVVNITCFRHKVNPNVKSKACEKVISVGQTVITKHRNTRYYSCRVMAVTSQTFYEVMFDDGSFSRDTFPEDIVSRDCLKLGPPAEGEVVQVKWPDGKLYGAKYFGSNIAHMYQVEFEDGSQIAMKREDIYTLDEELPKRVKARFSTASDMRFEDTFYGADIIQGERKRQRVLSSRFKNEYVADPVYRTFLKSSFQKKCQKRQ

[2] = molecular target: T2, Lysine-specific demethylase 2B (Homo sapiens, UniProt Q8NHM5); assay: Inhibition of human KDM2B preincubated for 10 mins followed by substrate addition by AlphaLISA assay
T2 sequence (Q8NHM5 whole entry): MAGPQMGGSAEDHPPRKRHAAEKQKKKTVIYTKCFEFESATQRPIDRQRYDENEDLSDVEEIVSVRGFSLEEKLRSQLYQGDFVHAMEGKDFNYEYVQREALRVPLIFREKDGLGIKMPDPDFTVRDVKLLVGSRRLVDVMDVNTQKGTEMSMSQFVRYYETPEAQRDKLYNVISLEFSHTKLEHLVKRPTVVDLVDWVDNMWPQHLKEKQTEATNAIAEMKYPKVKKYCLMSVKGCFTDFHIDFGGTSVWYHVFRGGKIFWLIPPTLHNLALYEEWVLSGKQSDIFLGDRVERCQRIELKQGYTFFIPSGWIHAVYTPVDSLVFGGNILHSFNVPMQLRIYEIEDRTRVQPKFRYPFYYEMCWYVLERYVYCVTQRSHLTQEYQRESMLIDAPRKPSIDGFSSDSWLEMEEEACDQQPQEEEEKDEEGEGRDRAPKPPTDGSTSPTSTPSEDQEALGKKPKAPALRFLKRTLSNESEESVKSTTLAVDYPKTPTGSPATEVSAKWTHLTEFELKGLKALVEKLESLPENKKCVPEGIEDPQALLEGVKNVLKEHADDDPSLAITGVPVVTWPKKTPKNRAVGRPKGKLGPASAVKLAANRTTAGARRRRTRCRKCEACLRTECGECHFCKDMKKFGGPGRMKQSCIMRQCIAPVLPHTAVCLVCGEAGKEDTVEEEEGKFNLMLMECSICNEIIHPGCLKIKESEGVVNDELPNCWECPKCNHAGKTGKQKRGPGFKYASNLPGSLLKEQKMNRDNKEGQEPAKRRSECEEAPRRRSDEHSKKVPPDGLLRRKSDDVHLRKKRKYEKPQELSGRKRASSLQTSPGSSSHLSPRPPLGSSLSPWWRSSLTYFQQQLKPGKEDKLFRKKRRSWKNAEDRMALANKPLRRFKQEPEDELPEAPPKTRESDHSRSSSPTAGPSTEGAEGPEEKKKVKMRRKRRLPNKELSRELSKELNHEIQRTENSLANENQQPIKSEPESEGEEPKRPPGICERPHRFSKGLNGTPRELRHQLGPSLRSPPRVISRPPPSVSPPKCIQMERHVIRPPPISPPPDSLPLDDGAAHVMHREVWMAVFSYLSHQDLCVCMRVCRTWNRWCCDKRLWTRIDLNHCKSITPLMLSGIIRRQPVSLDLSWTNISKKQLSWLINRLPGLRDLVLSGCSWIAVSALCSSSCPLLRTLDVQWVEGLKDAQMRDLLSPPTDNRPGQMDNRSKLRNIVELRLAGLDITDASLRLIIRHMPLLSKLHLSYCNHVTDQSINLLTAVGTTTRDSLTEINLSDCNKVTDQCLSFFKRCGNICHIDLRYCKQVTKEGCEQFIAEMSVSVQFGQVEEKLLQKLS

[3] = molecular target: Histone lysine demethylase PHF8 (Homo sapiens, UniProt Q9UPP1); assay: Inhibition of human PHF8 preincubated for 10 mins followed by substrate addition by AlphaLISA assay
Histone lysine demethylase PHF8, sequence (Q9UPP1 whole entry): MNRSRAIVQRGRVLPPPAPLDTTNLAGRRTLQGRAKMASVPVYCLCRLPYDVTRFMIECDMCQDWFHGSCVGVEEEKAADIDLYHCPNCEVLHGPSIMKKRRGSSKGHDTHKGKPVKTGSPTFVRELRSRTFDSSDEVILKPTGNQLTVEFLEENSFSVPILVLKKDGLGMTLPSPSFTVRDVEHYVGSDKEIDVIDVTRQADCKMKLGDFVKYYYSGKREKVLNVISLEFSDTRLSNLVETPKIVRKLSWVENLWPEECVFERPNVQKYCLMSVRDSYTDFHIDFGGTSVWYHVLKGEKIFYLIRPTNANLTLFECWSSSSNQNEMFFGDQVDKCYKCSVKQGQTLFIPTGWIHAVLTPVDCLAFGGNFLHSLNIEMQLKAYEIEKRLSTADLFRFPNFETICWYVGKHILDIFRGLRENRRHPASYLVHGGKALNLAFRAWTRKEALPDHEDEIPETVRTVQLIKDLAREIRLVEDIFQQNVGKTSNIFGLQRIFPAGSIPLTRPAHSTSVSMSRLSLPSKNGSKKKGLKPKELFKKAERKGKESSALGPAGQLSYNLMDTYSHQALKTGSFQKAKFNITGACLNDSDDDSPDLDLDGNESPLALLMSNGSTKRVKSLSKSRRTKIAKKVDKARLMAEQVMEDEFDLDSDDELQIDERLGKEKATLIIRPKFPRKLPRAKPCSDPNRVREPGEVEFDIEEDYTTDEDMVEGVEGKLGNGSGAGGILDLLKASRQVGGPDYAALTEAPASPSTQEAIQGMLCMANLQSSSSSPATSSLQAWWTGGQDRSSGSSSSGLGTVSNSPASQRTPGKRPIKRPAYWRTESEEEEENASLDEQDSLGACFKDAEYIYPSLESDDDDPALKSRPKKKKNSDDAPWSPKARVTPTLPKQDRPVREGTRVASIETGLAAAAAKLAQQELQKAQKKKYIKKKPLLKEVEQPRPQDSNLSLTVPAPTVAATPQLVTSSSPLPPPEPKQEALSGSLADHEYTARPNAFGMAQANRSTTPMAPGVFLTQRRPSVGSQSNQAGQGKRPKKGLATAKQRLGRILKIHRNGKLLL

[4] = molecular target: Lysine-specific demethylase 6A (Homo sapiens, UniProt O15550); assay: Inhibition of human KDM6A preincubated for 10 mins followed by substrate addition by AlphaLISA assay
Lysine-specific demethylase 6A, sequence (O15550 whole entry): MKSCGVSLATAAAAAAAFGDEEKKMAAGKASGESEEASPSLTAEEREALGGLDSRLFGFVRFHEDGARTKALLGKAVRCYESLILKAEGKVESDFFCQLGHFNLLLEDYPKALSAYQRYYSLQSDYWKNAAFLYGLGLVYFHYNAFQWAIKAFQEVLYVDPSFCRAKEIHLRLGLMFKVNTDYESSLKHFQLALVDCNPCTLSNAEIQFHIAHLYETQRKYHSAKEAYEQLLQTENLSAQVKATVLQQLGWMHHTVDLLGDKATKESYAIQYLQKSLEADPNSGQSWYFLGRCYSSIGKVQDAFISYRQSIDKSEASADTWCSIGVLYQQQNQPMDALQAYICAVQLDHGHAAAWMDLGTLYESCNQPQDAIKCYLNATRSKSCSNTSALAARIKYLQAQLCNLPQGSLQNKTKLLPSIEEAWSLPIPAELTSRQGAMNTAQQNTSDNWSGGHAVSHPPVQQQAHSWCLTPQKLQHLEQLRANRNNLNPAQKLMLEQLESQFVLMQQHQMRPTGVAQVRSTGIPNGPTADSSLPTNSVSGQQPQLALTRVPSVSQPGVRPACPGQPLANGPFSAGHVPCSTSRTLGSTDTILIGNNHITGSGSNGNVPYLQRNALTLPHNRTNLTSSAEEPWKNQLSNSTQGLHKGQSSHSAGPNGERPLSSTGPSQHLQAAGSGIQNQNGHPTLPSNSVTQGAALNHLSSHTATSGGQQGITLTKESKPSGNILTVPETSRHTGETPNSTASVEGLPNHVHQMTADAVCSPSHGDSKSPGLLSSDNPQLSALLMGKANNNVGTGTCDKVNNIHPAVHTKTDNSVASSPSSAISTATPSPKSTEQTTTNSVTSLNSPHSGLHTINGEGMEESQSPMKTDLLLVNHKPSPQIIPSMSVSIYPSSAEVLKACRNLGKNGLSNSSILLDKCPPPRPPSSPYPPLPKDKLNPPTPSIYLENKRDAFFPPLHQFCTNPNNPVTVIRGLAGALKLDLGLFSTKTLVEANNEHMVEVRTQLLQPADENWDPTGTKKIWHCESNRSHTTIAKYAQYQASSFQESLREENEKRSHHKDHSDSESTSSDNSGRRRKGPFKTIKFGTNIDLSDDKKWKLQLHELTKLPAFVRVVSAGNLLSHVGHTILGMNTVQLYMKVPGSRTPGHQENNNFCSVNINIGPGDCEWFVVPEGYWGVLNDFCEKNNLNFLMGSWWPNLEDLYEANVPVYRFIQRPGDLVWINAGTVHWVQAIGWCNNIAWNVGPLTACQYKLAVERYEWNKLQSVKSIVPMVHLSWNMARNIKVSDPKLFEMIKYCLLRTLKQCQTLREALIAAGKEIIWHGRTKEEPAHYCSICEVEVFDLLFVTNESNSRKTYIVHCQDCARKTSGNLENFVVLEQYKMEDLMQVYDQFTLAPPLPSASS

[5] = molecular target: Lysine-specific demethylase 5B (Homo sapiens, UniProt Q9UGL1); assay: Inhibition of human KDM5B preincubated for 10 mins followed by substrate addition by AlphaLISA assay
Lysine-specific demethylase 5B, sequence (Q9UGL1 whole entry): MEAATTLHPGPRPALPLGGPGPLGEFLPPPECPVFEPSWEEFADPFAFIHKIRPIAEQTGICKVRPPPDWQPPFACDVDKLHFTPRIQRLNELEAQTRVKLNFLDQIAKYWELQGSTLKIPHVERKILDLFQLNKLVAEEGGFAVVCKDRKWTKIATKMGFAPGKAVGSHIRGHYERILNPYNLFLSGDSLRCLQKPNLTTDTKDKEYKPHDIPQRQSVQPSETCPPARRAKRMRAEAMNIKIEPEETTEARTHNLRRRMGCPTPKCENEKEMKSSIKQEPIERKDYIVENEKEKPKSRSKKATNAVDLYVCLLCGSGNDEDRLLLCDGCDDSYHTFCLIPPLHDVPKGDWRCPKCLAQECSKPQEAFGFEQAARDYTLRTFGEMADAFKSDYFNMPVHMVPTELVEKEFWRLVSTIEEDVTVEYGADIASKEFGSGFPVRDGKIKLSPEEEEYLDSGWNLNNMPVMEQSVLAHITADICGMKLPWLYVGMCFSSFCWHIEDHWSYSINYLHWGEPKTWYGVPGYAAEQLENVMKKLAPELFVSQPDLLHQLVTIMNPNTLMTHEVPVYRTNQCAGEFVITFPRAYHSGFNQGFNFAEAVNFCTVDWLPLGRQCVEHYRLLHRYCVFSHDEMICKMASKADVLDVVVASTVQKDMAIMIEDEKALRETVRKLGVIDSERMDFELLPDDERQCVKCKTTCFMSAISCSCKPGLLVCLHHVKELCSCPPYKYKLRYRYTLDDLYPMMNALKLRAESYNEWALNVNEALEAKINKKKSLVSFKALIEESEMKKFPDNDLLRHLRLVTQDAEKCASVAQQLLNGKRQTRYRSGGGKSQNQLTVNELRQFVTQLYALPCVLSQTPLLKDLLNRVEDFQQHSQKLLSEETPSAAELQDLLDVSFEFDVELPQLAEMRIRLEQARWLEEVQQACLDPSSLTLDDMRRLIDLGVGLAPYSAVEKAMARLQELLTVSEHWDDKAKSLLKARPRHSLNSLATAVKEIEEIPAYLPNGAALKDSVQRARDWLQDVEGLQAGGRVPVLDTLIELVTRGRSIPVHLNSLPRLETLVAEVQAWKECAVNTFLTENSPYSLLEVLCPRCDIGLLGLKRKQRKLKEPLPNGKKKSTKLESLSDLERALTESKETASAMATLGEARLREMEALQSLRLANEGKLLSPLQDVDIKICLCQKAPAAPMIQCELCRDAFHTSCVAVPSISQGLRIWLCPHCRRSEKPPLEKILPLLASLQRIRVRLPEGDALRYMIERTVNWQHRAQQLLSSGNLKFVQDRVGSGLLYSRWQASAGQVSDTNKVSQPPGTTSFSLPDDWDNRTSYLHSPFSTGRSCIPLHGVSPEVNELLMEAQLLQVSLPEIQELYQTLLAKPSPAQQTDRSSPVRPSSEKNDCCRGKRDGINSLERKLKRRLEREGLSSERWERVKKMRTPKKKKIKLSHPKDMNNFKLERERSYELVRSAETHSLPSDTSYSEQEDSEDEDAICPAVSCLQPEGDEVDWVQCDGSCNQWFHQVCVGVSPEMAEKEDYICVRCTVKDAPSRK

pIC50 [1] | pIC50 [2] | pIC50 [3] | pIC50 [4] | pIC50 [5] | Structure (SMILES)
> 6.60 | > 6.60 | > 6.60 | < 5.60 | > 6.60 | C[C@H](c1ccccc1)N1CC[C@@H](CNCc2cc(C(=O)O)ccn2)C1=O
> 6.60 | > 6.60 | > 6.60 | < 5.60 | > 6.60 | C[C@H](c1ccccc1)N1CCC[C@H](CNCc2cc(C(=O)O)ccn2)C1=O
> 6.60 | > 6.60 | > 6.60 | < 5.60 | > 6.60 | COc1ccc([C@@H](C)N2CCC[C@@H](CNCc3cc(C(=O)O)ccn3)C2=O)cc1
> 6.60 | < 5.60 | > 6.60 | < 5.60 | > 6.60 | Cc1cn2c(n1)CCN(Cc1cc(C(=O)O)ccn1)CC2
> 6.60 | > 6.60 | > 6.60 | < 5.60 | > 6.60 | C[C@H](c1ccccc1)N1CCC[C@@H](CNCc2cc(C(=O)O)ccn2)C1=O
> 6.60 | > 6.60 | > 6.60 | < 5.60 | > 6.60 | CCN1CCC(CNCc2cc(C(=O)O)ccn2)C1=O (stereo not given)
